The test system of one data set is plasma proteins. Put plainly: Distribution: erythrocyte/plasma partitioning, plasma protein binding, blood-brain barrier. The format is in vitro ADME. The source says: Levodopa is transported into the brain by the carrier mechanism for large neutral amino acids.
A short description of data set [1]: Metabolism and elimination. Conditions: in vivo; for half-life: human. An excerpt: Levodopa is mainly eliminated via metabolism by the aromatic amino acid decarboxylase (AAAD) and the catechol-O-methyl-transferase (COMT) enzymes. Other routes of metabolism are transamination and oxidation. The decarboxylation of levodopa to dopamine by AAAD is the major enzymatic pathway when no enzyme inhibitor is co-administered. O-methylation of levodopa by COMT forms 3-O-methyldopa. […] These 2 metabolites are primarily eliminated in the urine unchanged or as glucuronide conjugates.

The structures appear in SMILES notation.

One may read the half-life as how long it takes for the measured level to halve.

As to `C[C@@](Cc1ccc(O)c(O)c1)(NN)C(=O)O` [carbidopa], the “blood-brain barrier passage” value in the data set with plasma proteins is given as “does not cross the blood-brain barrier”. In data set [1], the half-life is about 120 min and the “unchanged drug as share of the total urinary excretion” value turned out to be 30%.
On to `N[C@@H](Cc1ccc(O)c(O)c1)C(=O)O` [levodopa, L-3,4-dihydroxyphenylalanine], for which, in the data set on plasma proteins, the “binding to plasma proteins” value is listed as under 10%; the “partitioning ratio between erythrocytes and plasma” value is recorded as “approximately 1”. In data set [1], the half-life was about 90 min.
